Data on 47 compounds can be found in ChEMBL document CHEMBL1138611, “Oxadiazolylindazole sodium channel modulators are neuroprotective toward hippocampal neurones” (J Med Chem, 2009).

A short description of assay [1]: Inhibition of voltage-gated sodium channel in Wistar rat forebrain synaptosomes assessed as inhibition of [14C]guanidium ion flux. The class given is subcellular, Brain.
Another assay relates to Hippocampus. The experiment in a line: Neuroprotective activity in Wistar rat hippocampal slices assessed as ATP concentration at 50 uM relative to tetrodotoxin. The assay is classed as functional.
For a further assay, the target named is Cytochrome P450 2D6 (Homo sapiens, UniProt P10635). The experiment in a line: Inhibition of human recombinant CYP2D6. The class given is ADME.

Structures are written as SMILES. Bounds are passed on as bounds.

Broadly, the IC50 is the concentration needed to halve the response being measured.

Sequence of Cytochrome P450 2D6 (P10635 whole entry): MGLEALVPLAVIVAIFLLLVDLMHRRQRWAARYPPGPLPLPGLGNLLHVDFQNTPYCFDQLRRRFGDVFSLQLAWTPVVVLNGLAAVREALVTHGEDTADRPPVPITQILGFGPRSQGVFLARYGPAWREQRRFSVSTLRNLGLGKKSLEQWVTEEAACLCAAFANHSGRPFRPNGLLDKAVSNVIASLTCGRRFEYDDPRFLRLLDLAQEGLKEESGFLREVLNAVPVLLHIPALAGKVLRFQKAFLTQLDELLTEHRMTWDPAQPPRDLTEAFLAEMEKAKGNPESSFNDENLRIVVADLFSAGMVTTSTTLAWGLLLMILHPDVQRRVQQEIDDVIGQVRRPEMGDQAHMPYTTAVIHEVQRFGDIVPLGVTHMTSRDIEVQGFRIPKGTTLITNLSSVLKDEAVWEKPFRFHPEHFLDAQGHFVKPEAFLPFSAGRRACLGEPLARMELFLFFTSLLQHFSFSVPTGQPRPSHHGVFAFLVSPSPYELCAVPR

On to `O=C(NCc1noc(-c2nn(Cc3ccccc3)c3ccccc23)n1)c1ccccc1`, for which the IC50 in assay [1] turned out to be 18 µM. Besides, the Activity with Hippocampus is reported as 23%.

In the case of `Cc1cccc(Cn2nc3ccccc3c2-c2nc(CN)no2)c1`, the IC50 in assay [1] was 26 µM. Moreover, in the assay with Hippocampus, the Activity came to 37%.

Turning to `Cc1cc(C)cc(Cn2nc3ccccc3c2-c2nc(CN)no2)c1`, in assay [1], the IC50 stood at 14 µM. Further, the Activity with Hippocampus was 35%.

With `CC(=O)Nc1ccc(Cn2nc(-c3nc(CN)no3)c3ccccc32)cc1`, the IC50 in assay [1] was 309 µM. The Activity with Hippocampus stood at 10%.

Turning to `NCc1noc(-c2nn(Cc3cccc(C(F)(F)F)c3)c3ccccc23)n1`, the IC50 in assay [1] was 26 µM. In the assay on Hippocampus, the Activity is listed as 58%.

Consider `Cc1nc(-c2ccc(Cn3nc(-c4nc(CN)no4)c4ccccc43)cc2)no1`, for which, in assay [1], the IC50 worked out at 58 µM.

Regarding `COc1ccc(Cn2nc(-c3nc(CNC(=O)OC(C)(C)C)no3)c3ccccc32)cc1`, the IC50 in assay [1] amounted to 4 µM. In the assay with Hippocampus, the Activity was 0%.

In the case of `COc1ccc(Cn2nc(-c3nc(CN)no3)c3ccccc32)cc1`, the IC50 in assay [1] worked out at 38 µM. In the assay on Hippocampus, the Activity was found to be 35%.

With `CC(C)(C)OC(=O)NCc1noc(-c2c3ccccc3nn2Cc2ccc3c(c2)OCO3)n1`, in assay [1], the IC50 came to 3 µM. Moreover, the Activity with Hippocampus is reported as 0%.

For the compound `CC(C)(C)OC(=O)NCc1noc(-c2c3ccccc3nn2Cc2cccc(Cl)c2)n1`, the concentration for half-maximal inhibition (IC50) in assay [1] was determined as 4 µM. In addition, the Activity in the assay on Hippocampus is 0%.

As to `NCc1noc(-c2nn(CCOc3ccccc3)c3ccccc23)n1`, the IC50 in assay [1] is 30 µM. Also, the Activity with Hippocampus was determined as 40%.

For `CC(C)(C)OC(=O)NCc1noc(-c2c3ccccc3nn2Cc2ccccc2)n1`, the IC50 in assay [1] was 174 µM. Also, in the assay with Hippocampus, the Activity came to 25%.

Take `NCc1noc(-c2nn(Cc3ccc4c(c3)OCO4)c3ccccc23)n1`: the half-maximal inhibitory concentration (IC50) in assay [1] was 30 µM. For the same compound, the Activity in the assay on Hippocampus turned out to be 44%.

As to `CC(C)(C)OC(=O)NCc1noc(-c2nn(Cc3cccc(Cl)c3)c3ccccc23)n1`, the IC50 in assay [1] was determined as 4 µM. In the assay on Hippocampus, the Activity worked out at 12%.

As to `Cc1cc(C)cc(Cn2nc3ccccc3c2-c2nc(CNC(=O)OC(C)(C)C)no2)c1`, the IC50 in assay [1] came to 12 µM. Besides, the Activity with Hippocampus stood at 0%.

Take `Cc1ccc(Cn2nc(-c3nc(CNC(=O)OC(C)(C)C)no3)c3ccccc32)cc1`: the IC50 in assay [1] worked out at 2 µM. Further, the Activity with Hippocampus was 0%.

For `NCc1noc(-c2nn(Cc3ccc(C(N)=O)cc3)c3ccccc23)n1`, the IC50 turned out to be 195 µM in assay [1] and 1.3 µM on Cytochrome P450 2D6. Also, the Activity with Hippocampus amounted to 8%.

On to `CC(C)(C)OC(=O)NCc1noc(-c2nn(Cc3ccccc3)c3ccccc23)n1`, for which the IC50 in assay [1] was 5 µM. Moreover, the Activity in the assay on Hippocampus amounted to 19%.

Take `NCc1noc(-c2nn(Cc3ccc4ccccc4c3)c3ccccc23)n1`: the IC50 in assay [1] stood at 20 µM. Also, the Activity in the assay with Hippocampus is listed as 11%.

As for `Cc1cc(C)cc(Cn2nc(-c3nc(CNC(=O)OC(C)(C)C)no3)c3ccccc32)c1`, in assay [1], the IC50 is 4 µM. In the assay with Hippocampus, the Activity is on record as 0%.

On to `NCc1noc(-c2nn(Cc3cccc(OC(F)(F)F)c3)c3ccccc23)n1`, for which the IC50 in assay [1] is 26 µM. Besides, in the assay with Hippocampus, the Activity was found to be 33%.

On to `O=C(NCc1noc(-c2nn(Cc3ccccc3)c3ccccc23)n1)OCc1ccccc1`, for which, in assay [1], the IC50 came out at 5 µM. The Activity in the assay on Hippocampus is 12%.

Turning to `NCc1noc(-c2c3ccccc3nn2Cc2ccc3c(c2)OCO3)n1`, in assay [1], the IC50 amounted to 34 µM. Moreover, the Activity in the assay with Hippocampus amounted to 55%.

For the compound `Cc1cccc(Cn2nc(-c3nc(CNC(=O)OC(C)(C)C)no3)c3ccccc32)c1`, the IC50 in assay [1] came to 1 µM; at Cytochrome P450 2D6, 20 µM. The Activity in the assay with Hippocampus is reported as 0%.

As for `CC(C)(C)OC(=O)NCc1noc(-c2nn(Cc3ccccc3Cl)c3ccccc23)n1`, the 50% inhibitory concentration (IC50) in assay [1] was above 300 µM. Moreover, the Activity in the assay on Hippocampus was 9%.

As to `CC(C)(C)OC(=O)NCc1noc(-c2nn(Cc3cccc(C(F)(F)F)c3)c3ccccc23)n1`, the 50% inhibitory concentration (IC50) in assay [1] turned out to be 8 µM. The Activity in the assay with Hippocampus is given as 3%.

With `NCc1noc(-c2nn(Cc3ccc(-c4cn[nH]c4)cc3)c3ccccc23)n1`, the IC50 in assay [1] was found to be 63 µM. The Activity in the assay with Hippocampus is 26%.

In the case of `Cc1ccc(Cn2nc(-c3nc(CN)no3)c3ccccc32)cc1`, the IC50 in assay [1] was 17 µM. Besides, the Activity in the assay on Hippocampus was determined as 34%.

With `CC(C)(C)OC(=O)NCc1noc(-c2c3ccccc3nn2CCc2ccccc2)n1`, in assay [1], the IC50 came out at 85 µM. Also, in the assay with Hippocampus, the Activity turned out to be 0%.

`CC(=O)n1nc(-c2nc(CNC(=O)OC(C)(C)C)no2)c2ccccc21`: the figures for the IC50 (in assay [1]; on Cytochrome P450 2D6) were 132 µM and above 10 µM, respectively. Moreover, in the assay with Hippocampus, the Activity was found to be 4%.

For `Cc1ccccc1Cn1nc(-c2nc(CNC(=O)OC(C)(C)C)no2)c2ccccc21`, in assay [1], the IC50 was determined as 3 µM. For the same compound, the Activity in the assay on Hippocampus worked out at 0%.

On to `CC(=O)n1nc(-c2nc(CN)no2)c2ccccc21`, for which the figures for the IC50 (in assay [1]; on Cytochrome P450 2D6) were above 300 µM and above 10 µM, respectively. Further, in the assay with Hippocampus, the Activity stood at 24%.

For `Cc1nc(-c2ccc(Cn3nc(-c4nc(CNC(=O)OC(C)(C)C)no4)c4ccccc43)cc2)no1`, the IC50 in assay [1] stood at 1 µM.

For the compound `O=S(=O)(NCc1noc(-c2nn(Cc3ccccc3)c3ccccc23)n1)c1ccccc1`, the IC50 in assay [1] worked out at 5 µM. Besides, the Activity in the assay with Hippocampus was 20%.

On to `NCc1noc(-c2nn(Cc3cccc(Cl)c3)c3ccccc23)n1`, for which the IC50 in assay [1] amounted to 14 µM. In the assay with Hippocampus, the Activity was 50%.

As for `Cc1cccc(Cn2nc3ccccc3c2-c2nc(CNC(=O)OC(C)(C)C)no2)c1`, the IC50 in assay [1] came to 151 µM. Besides, the Activity in the assay with Hippocampus is 0%.

`CC(C)(C)OC(=O)NCc1noc(-c2nn(CCc3ccccc3)c3ccccc23)n1`: the IC50 in assay [1] worked out at 5 µM. Besides, the Activity with Hippocampus worked out at 0%.

In the case of `CC(C)(C)OC(=O)NCc1noc(-c2nn(Cc3ccc4ccccc4c3)c3ccccc23)n1`, the IC50 in assay [1] was found to be 0.4 µM. Moreover, the Activity in the assay with Hippocampus came out at 0%.

Turning to `CC(C)(C)OC(=O)NCc1noc(-c2nn(Cc3cccc(OC(F)(F)F)c3)c3ccccc23)n1`, the IC50 in assay [1] worked out at 0.9 µM. In the assay on Hippocampus, the Activity was 0%.

Regarding `CC(C)(C)OC(=O)NCc1noc(-c2nn(Cc3cc(F)cc(F)c3F)c3ccccc23)n1`, in assay [1], the IC50 worked out at 1 µM. The Activity in the assay with Hippocampus amounted to 0%.

Turning to `Cc1ccccc1Cn1nc(-c2nc(CN)no2)c2ccccc21`, in assay [1], the IC50 came out at 26 µM. Moreover, the Activity with Hippocampus came to 46%.

Regarding `COc1cc(Cn2nc(-c3nc(CNC(=O)OC(C)(C)C)no3)c3ccccc32)cc(OC)c1OC`, the half-maximal inhibitory concentration (IC50) in assay [1] came out at 195 µM. Further, in the assay on Hippocampus, the Activity was 0%.

In the case of `COc1cc(Cn2nc(-c3nc(CN)no3)c3ccccc32)cc(OC)c1OC`, the concentration for half-maximal inhibition (IC50) in assay [1] came to 178 µM. Also, the Activity in the assay with Hippocampus was 28%.

On to `NCc1noc(-c2nn(Cc3ccccc3Cl)c3ccccc23)n1`, for which, in assay [1], the IC50 was found to be 20 µM. The Activity in the assay with Hippocampus was 43%.

Take `COc1ccc(S(=O)(=O)n2nc(-c3nc(CNC(=O)OC(C)(C)C)no3)c3ccccc32)cc1OC`: the IC50 worked out at 2 µM in assay [1] and 20 µM at Cytochrome P450 2D6. The Activity with Hippocampus came out at 10%.

As for `NCc1noc(-c2nn(Cc3cc(F)cc(F)c3F)c3ccccc23)n1`, the IC50 in assay [1] worked out at 35 µM. For the same compound, in the assay with Hippocampus, the Activity was found to be 59%.

As for `CC(C)(C)OC(=O)NCc1noc(-c2nn(CCOc3ccccc3)c3ccccc23)n1`, the IC50 in assay [1] was found to be 6 µM. In the assay with Hippocampus, the Activity amounted to 8%.
